For one assay, the target named is human mPGES-1 (Homo sapiens (Human), UniProt O14684). As to the kind of experiment: mPGES-1 inhibitory activity test. The assay is classed as biochemical. The settings on record: for IC50: microsomes of CHO-K1 cells expressing human mPGES-1, PGH2 1 μM, PGE2 by HTRF, read-out: mPGES-1 inhibition (IC50 nM); for inhibition at 0.01 µM: 10 nM test compound; for inhibition at 0.1 µM: 100 nM test compound. Summed up: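 PGE2 formation was quantified by HTRF and reported as percent inhibition at 10 and 100 nM compound or as IC50. The 60-second reaction at 4° C used 1 μM PGH2, after a 20-minute 4° C preincubation of compound (1% DMSO final) with glutathione-supplemented (2.5 mM, pH 7.4) microsomes. The microsomes were from transiently transfected CHO-K1 cells expressing human mPGES-1.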
Chain of human mPGES-1 (O14684 whole entry): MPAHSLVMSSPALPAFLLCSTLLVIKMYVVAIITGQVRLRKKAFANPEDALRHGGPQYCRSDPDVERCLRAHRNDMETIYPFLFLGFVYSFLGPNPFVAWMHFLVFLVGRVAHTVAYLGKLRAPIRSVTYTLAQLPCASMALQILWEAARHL
In general terms: TR-FRET usually uses a lanthanide donor and a delayed reading to cut background.

In the next assay the test system is human A549 cells. The experiment in a line: Inhibition test of PGE2 production using human A549 cells. It is filed as cell-based. The settings on record: IL-1β stimulated A549 cells, 24 h, PGE2 by HTRF, read-out: A549 cell inhibition of PGE2 production IC50. Summed up: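 A549 cells were preincubated 60 min with compound in RPMI/3% FBS (0.1% DMSO final), then stimulated with IL-1β (5 ng/well) for 24 h at 37°C. PGE2 was measured by HTRF and PGF2a by EIA; activity was normalized to stimulated minus unstimulated controls, and IC50 derived.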

Usually IC50 stands for the concentration that inhibits the measured activity by half. Turning to `Cn1ncc2c(NC(=O)c3cc(CNC(=O)C(C)(C)C)ccc3Cl)cccc21` [Example 111, 2-Chloro-5-{[(2,2-dimethylpropanoyl)amino]methyl}-N-(1-methyl-1H-indazol-4-yl)benzamide], the IC50 came to 5.5 nM at human mPGES-1 and 40.6 nM in the assay with human A549 cells.
`Cn1ncc2c(NC(=O)c3cc(CNC(=O)C4CC4)ccc3Cl)cccc21` [Example 112, 2-Chloro-5-{[(cyclopropylcarbonyl)amino]methyl}-N-(1-methyl-1H-indazol-4-yl)benzamide]: the IC50 was 12.9 nM at human mPGES-1 and 91.1 nM in the assay on human A549 cells.
On to `CCn1ncc2c(NC(=O)c3cc(CNC(=O)C(C)(C)C)ccc3Cl)cccc21` [Example 113, 2-Chloro-5-{[(2,2-dimethylpropanoyl)amino]methyl}-N-(1-ethyl-1H-indazol-4-yl)benzamide], for which the IC50 was determined as 1.2 nM on human mPGES-1 and 20.2 nM in the assay with human A549 cells.
One may read the inhibition as the drop in the measured response relative to a control, in per cent. On human mPGES-1, `CC(C)(C)CC(=O)NCc1ccc(Cl)c(C(=O)Nc2cccc3c2cnn3-c2ccc(OC(F)(F)F)cc2)c1` [Example 114, 2-Chloro-5-{[(3,3-dimethylbutanoyl)amino]methyl}-N-{1-[4-(trifluoromethoxy)phenyl]-1H-indazol-4-yl}benzamide] showed an inhibition at 0.01 µM of 87%. In addition, the IC50 with human A549 cells turned out to be 1.9 nM.
On the same counts, the results for `O=C(Nc1cccc2c1cnn2-c1ccc(OC(F)(F)F)cc1)c1cc(CNC(=O)C2CCCC2)ccc1Cl` [Example 115, 2-Chloro-5-{[(cyclopentylcarbonyl)amino]methyl}-N-{1-[4-(trifluoromethoxy)phenyl]-1H-indazol-4-yl}benzamide] are 61% and 1.2 nM.
Regarding `O=C(Nc1cccc2c1cnn2-c1ccc(OC(F)(F)F)cc1)c1cc(CNC(=O)C2(C(F)(F)F)CC2)ccc1Cl` [Example 116, 2-Chloro-N-{1-[4-(trifluoromethoxy)phenyl]-1H-indazol-4-yl}-5-[({[1-(trifluoromethyl)cyclopropyl]carbonyl}amino)methyl]benzamide], on human mPGES-1, the inhibition at 0.01 µM is 68% and at 0.1 µM the inhibition was 100%. The IC50 in the assay on human A549 cells was 0.6 nM.
For `CC(C)(C)CC(=O)NCc1ccc(Cl)c(C(=O)Nc2cccc3c2cnn3-c2cccc(OC(F)(F)F)c2)c1` [Example 121, 2-Chloro-5-{[(3,3-dimethylbutanoyl)amino]methyl}-N-{1-[3-(trifluoromethoxy)phenyl]-1H-indazol-4-yl}benzamide], at 0.01 µM the inhibition against human mPGES-1 was 48%. The IC50 with human A549 cells is 10 nM.
For `O=C(Nc1cccc2c1cnn2-c1cccc(OC(F)(F)F)c1)c1cc(CNC(=O)C2CCCC2)ccc1Cl` [Example 122, 2-Chloro-5-{[(cyclopentylcarbonyl)amino]methyl}-N-{1-[3-(trifluoromethoxy)phenyl]-1H-indazol-4-yl}benzamide] the same measures were 100% and 2.9 nM.
For `O=C(Nc1cccc2c1cnn2-c1cccc(OC(F)(F)F)c1)c1cc(CNC(=O)C2(C(F)(F)F)CC2)ccc1Cl` [Example 123, 2-Chloro-N-{1-[3-(trifluoromethoxy)phenyl]-1H-indazol-4-yl}-5-[({[1-(trifluoromethyl)cyclopropyl]carbonyl}amino)methyl]benzamide] the same measures were 98% and 5.1 nM.
For `O=C(Nc1cccc2c1cnn2-c1cccc(OC(F)(F)F)c1)c1cc(CNS(=O)(=O)C2CC2)ccc1Cl` [Example 126, 2-Chloro-5-{[(cyclopropylsulfonyl)amino]methyl}-N-{1-[3-(trifluoromethoxy)phenyl]-1H-indazol-4-yl}benzamide] the same measures were 100% and 9.8 nM.
On human mPGES-1, `Cc1ccc(-n2ncc3c(NC(=O)c4cc(CNC(=O)CC(C)(C)C)ccc4Cl)cccc32)cc1Cl` [Example 127, 2-Chloro-N-[1-(3-chloro-4-methylphenyl)-1H-indazol-4-yl]-5-{[(3,3-dimethylbutanoyl)amino]methyl}benzamide] displayed an inhibition at 0.01 µM of 64%. Besides, the IC50 in the assay with human A549 cells is 4.7 nM.
On the same counts, the results for `Cc1ccc(-n2ncc3c(NC(=O)c4cc(CNC(=O)C5(C(F)(F)F)CC5)ccc4Cl)cccc32)cc1Cl` [Example 129, 2-Chloro-N-[1-(3-chloro-4-methylphenyl)-1H-indazol-4-yl]-5-[({[1-(trifluoromethyl)cyclopropyl]carbonyl}amino)methyl]benzamide] are 67% and 1.2 nM.
For `Cc1ccc(-n2ncc3c(NC(=O)c4cc(CNS(=O)(=O)C5CC5)ccc4Cl)cccc32)cc1Cl` [Example 132, 2-Chloro-N-[1-(3-chloro-4-methylphenyl)-1H-indazol-4-yl]-5-{[(cyclopropylsulfonyl)amino]methyl}benzamide] the same measures were 86% and 1.5 nM.
For the compound `CC(C)(C)CC(=O)NCc1ccc(Cl)c(C(=O)Nc2cccc3c2cnn3-c2cccc(OC(F)F)c2)c1` [Example 138, 2-Chloro-N-{1-[3-(difluoromethoxy)phenyl]-1H-indazol-4-yl}-5-{[(3,3-dimethylbutanoyl)amino]methyl}benzamide], at human mPGES-1, the inhibition at 0.01 µM worked out at 61% and 0.1 µM produced 100% inhibition. For the same compound, the IC50 in the assay on human A549 cells amounted to 6 nM.
On human mPGES-1, `O=C(Nc1cccc2c1cnn2-c1cccc(OC(F)F)c1)c1cc(CNC(=O)C2(O)CC2)ccc1Cl` [Example 141, 2-Chloro-N-{1-[3-(difluoromethoxy)phenyl]-1H-indazol-4-yl}-5-({[(1-hydroxycyclopropyl)carbonyl]amino}methyl)benzamide] displayed an inhibition at 0.01 µM of 54% and an inhibition at 0.1 µM of 100%. Besides, the IC50 in the assay with human A549 cells stood at 59.4 nM.
As for `CC(C)(CO)C(=O)NCc1ccc(Cl)c(C(=O)Nc2cccc3c2cnn3-c2cccc(OC(F)F)c2)c1` [Example 143, 2-Chloro-N-{1-[3-(difluoromethoxy)phenyl]-1H-indazol-4-yl}-5-{[(3-hydroxy-2,2-dimethylpropanoyl)amino]methyl}benzamide], at human mPGES-1, 0.01 µM produced 92% inhibition and the inhibition at 0.1 µM amounted to 100%. Moreover, the IC50 with human A549 cells came to 17.4 nM.
For `O=C(Nc1cccc2c1cnn2-c1cccc(OC(F)F)c1)c1cc(CNS(=O)(=O)C2CC2)ccc1Cl` [Example 144, 2-Chloro-5-{[(cyclopropylsulfonyl)amino]methyl}-N-{1-[3-(difluoromethoxy)phenyl]-1H-indazol-4-yl}benzamide] the same measures were 73%, 100% and 1.8 nM.
As for `CC(C)(C)CC(=O)NCc1ccc(Cl)c(C(=O)Nc2cccc3c2cnn3-c2ccc(Cl)cc2)c1` [Example 145, 2-Chloro-N-[1-(4-chlorophenyl)-1H-indazol-4-yl]-5-([(3,3-dimethylbutanoyl)amino]methyl)benzamide], testing at 0.01 µM at human mPGES-1 gave an inhibition of 92%. Further, the IC50 with human A549 cells amounted to 6.3 nM.
On the same counts, the results for `O=C(Nc1cccc2c1cnn2-c1ccc(Cl)cc1)c1cc(CNC(=O)C2(C(F)(F)F)CC2)ccc1Cl` [Example 147, 2-Chloro-N-[1-(4-chlorophenyl)-1H-indazol-4-yl]-5-[({[1-(trifluoromethyl)cyclopropyl]carbonyl}amino)methyl]benzamide] are 85% and 0.9 nM.
In the case of `COCC(=O)NCc1ccc(Cl)c(C(=O)Nc2cccc3c2cnn3-c2ccc(Cl)cc2)c1` [Example 148, 2-Chloro-N-[1-(4-chlorophenyl)-1H-indazol-4-yl]-5-([(methoxyacetyl)amino]methyl)benzamide], at human mPGES-1, 0.01 µM produced 70% inhibition and the inhibition at 0.1 µM was 100%. For the same compound, the IC50 in the assay with human A549 cells is 4.2 nM.
As to `CC(C)(CO)C(=O)NCc1ccc(Cl)c(C(=O)Nc2cccc3c2cnn3-c2ccc(Cl)cc2)c1` [Example 149, 2-Chloro-N-[1-(4-chlorophenyl)-1H-indazol-4-yl]-5-{[(3-hydroxy-2,2-dimethylpropanoyl)amino]methyl}benzamide], testing at 0.01 µM against human mPGES-1 gave an inhibition of 94%. In addition, in the assay with human A549 cells, the IC50 stood at 3.2 nM.
`O=C(Nc1cccc2c1cnn2-c1ccc(Cl)cc1)c1cc(CNS(=O)(=O)C2CC2)ccc1Cl` [Example 150, 2-Chloro-N-[1-(4-chlorophenyl)-1H-indazol-4-yl]-5-([(cyclopropylsulfonyl)amino]methyl)benzamide] returned an inhibition at 0.01 µM against human mPGES-1 of 72%. For the same compound, the IC50 in the assay on human A549 cells was 5.9 nM.
The compound `CC(C)(C)CC(=O)NCc1ccc(Cl)c(C(=O)Nc2cccc3c2cnn3-c2ccc(F)cc2)c1` [Example 151, 2-Chloro-5-{[(3,3-dimethylbutanoyl)amino]methyl}-N-[1-(4-fluorophenyl)-1H-indazol-4-yl]benzamide] came in with an inhibition at 0.01 µM against human mPGES-1 of 100%. For the same compound, in the assay on human A549 cells, the IC50 stood at 14.3 nM.
For `O=C(Nc1cccc2c1cnn2-c1ccc(F)cc1)c1cc(CNC(=O)C2CCCC2)ccc1Cl` [Example 152, 2-Chloro-5-{[(cyclopentylcarbonyl)amino]methyl}-N-[1-(4-fluorophenyl)-1H-indazol-4-yl]benzamide] the same measures were 58% and 7.6 nM.
For `O=C(Nc1cccc2c1cnn2-c1ccc(F)cc1)c1cc(CNC(=O)C2(C(F)(F)F)CC2)ccc1Cl` [Example 153, 2-Chloro-N-[1-(4-fluorophenyl)-1H-indazol-4-yl]-5-[({[1-(trifluoromethyl)cyclopropyl]carbonyl}amino)methyl]benzamide] the same measures were 100% and 1 nM.

The values above are taken from patent US20250059172A1, “INDAZOLE COMPOUND AND PHARMACEUTICAL” (NIPPON SHINYAKU CO., LTD., priority 2021, published 2025).
